Laboratory results: PubChem BioAssay (NCI)
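1) Cells in 96-well plates. 2) Compound, 48 h, 5 concentrations. 3) Linear interpolation between surrounding doses. 4) Unreached endpoint = highest concentration. GI50: concentration for 50% inhibition of growth. At the TGI there is no net growth.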

How the values were obtained:
Test in all cases: growth of human tumour cells (NCI), 48 h
A498 renal = tested on: A498 renal
CAKI-1 renal = tested on: CAKI-1 renal
MOLT-4 leukemia = tested on: MOLT-4 leukemia
SK-MEL-2 melanoma = tested on: SK-MEL-2 melanoma
SK-MEL-28 melanoma = tested on: SK-MEL-28 melanoma
UACC-62 melanoma = tested on: UACC-62 melanoma
DU-145 prostate = tested on: DU-145 prostate
MCF7 breast = tested on: MCF7 breast
MDA-MB-231 breast = tested on: MDA-MB-231 breast
MDA-MB-435 = tested on: MDA-MB-435

Structure (SMILES)	TGI (A498 renal) [µM]	TGI (CAKI-1 renal) [µM]	TGI (MOLT-4 leukemia) [µM]	TGI (SK-MEL-2 melanoma) [µM]	TGI (SK-MEL-28 melanoma) [µM]	TGI (UACC-62 melanoma) [µM]	TGI (DU-145 prostate) [µM]	TGI (MCF7 breast) [µM]	TGI (MDA-MB-231 breast) [µM]	TGI (MDA-MB-435) [µM]	GI50 (A498 renal) [µM]	GI50 (CAKI-1 renal) [µM]	GI50 (DU-145 prostate) [µM]	GI50 (MCF7 breast) [µM]	GI50 (MDA-MB-231 breast) [µM]	GI50 (MOLT-4 leukemia) [µM]	GI50 (SK-MEL-2 melanoma) [µM]	GI50 (SK-MEL-28 melanoma) [µM]	GI50 (MDA-MB-435) [µM]	GI50 (UACC-62 melanoma) [µM]
COc1cc2c(cc1OC)[C@@H]([C@H](O)c1ccccc1)NCC2	> 100	> 100	> 100	> 100	> 100	> 100														
Cc1ccc2c(CC(=O)O)cc(=O)oc2c1	> 100	> 100	> 100	> 100	> 100	> 100														
O=C(CC1C(=O)Nc2ccccc2S1(=O)=O)Nc1cccc(Cl)c1 (stereo unspecified)	39.1	41.2	32.3	84	38.7	30.3														
C[n+]1c(/C=C/c2ccc(/C=N/NC(=O)c3ccc(C(=O)N/N=C/c4ccc(/C=C/c5cn6ccccc6[n+]5C)cc4)cc3)cc2)cn2ccccc21		> 100	92.4		> 100		> 100	> 100	> 100	> 100										
COc1ccc(/C(=N/O)c2cc(OC)c(OC)c(OC)c2)c(OC)c1N	> 100	> 100	> 100	> 100	> 100		> 100	> 100	> 100		4.01	5.53	4.67	3.26	5.36	6.94	> 100	> 100		
Cc1cc(S(N)(=O)=O)c(S/C(=N\Nc2ccc([N+](=O)[O-])cc2)c2ccc3ccccc3c2)cc1Cl		48.8	> 100	> 100	> 100	28.9	43	> 100	29.6	64.9		17.5	13.2	19.9	13.4	73.9	> 100	35.1	22.2	15.6
O=C1c2c(c3c4ccccc4[nH]c3c3[nH]c4ccccc4c23)C(=O)N1Cc1ccccc1		10.2	7.51	10.6	11.7	16.2														
CCN(CC)CCC(=O)/C=C/c1ccc(C)cc1	24	3.28	38.2		28.1	30.9														
CSc1nc(N)c2c(n1)NC(c1ccccc1)C1CCc3ccccc3C1=N2 (stereo unspecified)	> 100	> 100	38.8	8.54		> 100	> 100	> 100	> 100	> 100	> 100	31.3	> 100	52	> 100	1.85	4.13		55.5	6.01
Cc1cn2c(/C=N/N=C(N)N)c(-c3ccsc3)nc2s1	43.3	32.7	> 100	> 100		23.4		14.8	17.1	24.6	28.3	17.4		3.43	3.94	> 100	28.3		11.1	11.3
COC(=O)C(=O)C(CC(=O)Nc1cccc(C(F)(F)F)c1)C(=O)OC (stereo unspecified)	> 100	> 100	> 100	> 100	> 100	> 100														
O=C1CCC2(c3ccccc3)Nc3ccc(Cl)cc3N12 (stereo unspecified)	> 100	> 100	> 100	> 100	> 100	> 100														
N=C(N)SCc1ccc([N+](=O)[O-])cc1[N+](=O)[O-]	66.6	15.8	20.2	16.6		25.3	9.95	16.9	36.6	29.3	29.9	4.86	2.25	2.04	12	3.07	4.5		11.8	11.3
CNCCCn1c2c(c3ccc(F)cc3c1=O)C(=O)c1cc(OC)cnc1-2	1.61		0.318	7.37	3.94	2.68	1.12	3.43	2.38	1.81	0.369		0.202	0.0344	0.7	0.0379	1.6	1.44	0.471	0.608
Cc1cc(NS(=O)(=O)c2ccc(NC(=O)COC(=O)c3cccc4c(=O)c5ccccc5[nH]c34)cc2)no1	> 100	> 100	> 100		> 100	> 100														
